Measured values from US20040091479A1, “T-cell epitope of the papillomavirus l1 and e7 protein and use thereof in diagnostics and therapy” (priority 2000, published 2004).

Key:
[1] = system: autologous peptide-loaded BLCL; assay: Cytotoxicity test (chromium release assay) of HPV18 E786-94-specific T cells; type: cell-based, human; conditions: effector to target ratio of 30:1, FIG. 17 bottom
Experimental: The predicted peptides were synthesized using standard methods (F moc method). […] For this, 1×10^5 PBMC derived from healthy, HLA-A2-positive donors were sown, in 100 μl of medium (RPMI 1640, 10% heat-inactivated AB plasma), in each well of a 96-well plate. 20 μg of peptide/ml were added to the culture medium. The cells were incubated at 37° C. and restimulated once per week with irradiated peptide-loaded autologous PBMC. The stimulator PBMC were incubated for 4 hours in medium containing 20 μg of peptide/ml. After the irradiation, they were diluted down to 1×10^4/100 μl with medium and added to the peptide-stimulated PBMC. For this, half the medium was aspirated from each well and 100 μl of the stimulator PBMC suspension were added. 10 U of IL-2/ml and 10 U of IL-7/ml were added from the 3rd stimulation onwards. From the 5th stimulation onwards, restimulation was carried out in the same manner using peptide-loaded autologous B lymphoblast cell lines (BLCL).
The cytotoxicity of HPV18 E786-94-specific T cells was determined in a chromium release assay. Autologous BLCL were used as the target cells. In each case, 5×10^5 cells were taken up in 100 μl of medium (RPMI 1640, 10% FCS) and treated with 20 μl of ^51chromium (NEN). For loading the BLCL with peptide, 50 μg of the corresponding peptide were added/ml. After that, the cells were incubated at room temperature for 2 hours while being carefully resuspended every 20-30 min. The cells were then washed 3 times with 5 ml of medium. For the sedimenting, the cells were in each case centrifuged at 1500 rpm for 5 min and then carefully resuspended. […]
The assay samples were incubated for 4 hours at 37° C., 98% atmospheric humidity and 5% CO2. […] On the following day, 150 μl of Microscint 40 scintillation fluid (Canberra-Packard, Deieich) were added and the numbers of distintegrations per minute in the individual assay samples were measured in the scintillation counter (Topcount, Canberra-Packard, Dreieich).
The specific lysis was calculated using the following formula: […]

[2] = system: T cell line generated with HeLa CD80/HLA-A2 transfectants (H7.1-A2); assay: IFN-γ ELISpot of H7.1-A2-specific T cell line against peptide-loaded autologous PBMC; type: cell-based, human; conditions: H7.1-A2-induced T cell line, FIG. 17 top
[3] = system: CVLP-stimulated CD4-positive T cells; assay: Restimulating HPV18 CVLP-stimulated T cells with BLCL presenting pools or Q30 (example 15); type: cell-based, human
Experimental: (§1) In analogy with example 6, human T cells derived from a non-HLA-typed blood donor were stimulated, at 37° C., with HPV18L1ΔCDIE71-53DI CVLPs and HPV18L1ΔCDIE71-60DI CVLPs and harvested.
The T cells were then restimulated, at 37° C. and in 100 μl of medium, with the peptide pools from example 6 and 10^5 antigen-presenting cells (donor-identical BLCL) in the presence of 10 IU of IL2/ml. Use was made, in this connection, of quantities of the peptide pools which were such that 1 μg/ml was added in the case of each individual peptide. Cells which were only incubated with buffer served as the negative control while cells which were incubated with the HPV18 L1 or E7 peptide pool served as positive controls (upper part of FIG. 14). In the case of the lower part of FIG. 14, the T cells were restimulated, at 37° C. and in 100 μl of medium, with peptide pools F and 4 and with 1 μg of peptide Q30/ml and 10^5 antigen-presenting cells (donor-identical BLCL) in the presence of 10 IU of IL2/ml.
(§2) 1 μl of monensin was added after an hour. The cells were then incubated at 37° C. for a further 5 hours. After that, the cells were fixed and permeabilized and stained with α-human CDB/APC, with α-human CD4/PerCP and with α-human IFNγ/FITC. The labeling of the cells was examined in a FACScan Calibur and the results of the measurements were analyzed using Cellquest software.

human T cells = assay: Summary of examples 3 to 18: epitopes recognized by human T cells; type: cell-based; conditions: Table 4, HPV18 peptides, species human
LKK cells = assay: 51Cr release: lysing HPV18 peptide-loaded LKK cells (example 17); type: cell-based, murine
Experimental: In analogy with example 4, RMA or LKK cells were radioactively labeled with ^51Cr and incubated with the peptides (Q43 and Q44 in the upper part of FIG. 16 and Q49 in the lower part of FIG. 16) which are plotted on the X axis. Cells without peptide served as negative controls. T cells which had previously been stimulated with the peptide pool were then added.
The lysis of the RMA cells or LKK cells by the T cells was measured by the release of the ^51Cr and calculated as described in example 4.

[4] = system: CVLP-stimulated CD8-positive T cells; assay: Restimulating HPV16 CVLP-stimulated T cells with P33-presenting BLCL (example 11); type: cell-based, human
Experimental: In analogy with example 6, human T cells derived from a non-HLA-typed blood donor were stimulated with HPV16L1ΔC*E71-55 CVLPs and harvested.
The T cells were then restimulated, at 37° C. and in 100 μl of medium, with 1 μg of peptide P33/ml and 10^5 antigen-presenting cells (donor-identical BLCL) in the presence of 10 IU of IL2/ml. Cells which were only incubated with buffer served as the negative control while cells which were incubated with HPV16 L1 peptide pool served as the positive control.
as §2, with “CD8/APC,” for “CDB/APC,”

P33-loaded RMA cells = assay: 51Cr release: lysing P33-loaded RMA cells; type: cell-based, C57BL/6 mouse
Experimental: RMA cells were incubated at 37° C. for one hour with ^51Cr, washed three times with medium and divided into 2 aliquots. 10 μg of the P33 peptide/ml were added to one aliquot of the cells while the other aliquot served as the negative control in the absence of the peptide. In each case 2000 of the cells (=target cells) were then added to 40.000 T cells (=effector cells) in a total volume of 150 μl. The T cells had previously been stimulated for 5 weeks with a mixture composed of 43 peptides (peptides 1-43, in each case 1 μg/ml).
Assay mixtures for spontaneous and maximal lysis of the cells were set up in parallel. Target cells which were incubated with culture medium were used for the spontaneous lysis. For the maximal lysis, target cells were lysed by adding 0.5% Triton X100.
The assay mixtures were incubated at 37° C. for 5 h. 50 μl volumes of the supernatants from the assay mixtures were added to Luma plates and dried overnight at room temperature. On the following morning, the quantity of radioactive ^51Cr (counts) was determined using a Canberra-Packerd B Plate Counter and related to the maximally lysed cells in the Triton assay mixture. The % specific lysis was then determined using the formula:
x=100·(counts−spontaneous counts)/(maximal counts−spontaneous counts).

[5] = system: HPV18 CVLP-stimulated human T cells; assay: Restimulating HPV18 CVLP-stimulated T cells with BLCL presenting Q38, Q39, Q46 or Q47 (example 13); type: cell-based
Experimental: In analogy with example 6, human T cells (4×10^5) derived from a non-HLA-typed blood donor were stimulated with HPV18L1ΔCDIE71-53DI CVLPs and HPV18L1ΔCDIE71-60DI CVLPs and harvested.
The T cells were then restimulated, at 37° C. and in 100 μl of medium, with in each case 1 μg of peptide Q38, Q39, Q46 or Q47/ml and 10^5 antigen-presenting cells (donor-identical BLCL) in the presence of 10 IU of IL2/ml. Cells which were only incubated with buffer served as the negative control while cells which were incubated with the HPV18 L1 peptide pool or the E7 peptide pool served as positive controls.
as §2, with “CD8/APC,” for “CDB/APC,”

[6] = system: CVLP-stimulated human CD4-positive T cells; assay: Restimulating HPV18 CVLP-stimulated T cells with BLCL presenting HPV18 peptide pools (example 6); type: cell-based; conditions: peptide common to two reactive HPV18 pools; CD4/IFNγ
Experimental: Human T cells (4×10^5) from a non-HLA-typed blood donor were stimulated for 1 week with HPV18 L1ΔCDIE71-53DI CVLPs and HPV18 L1ΔACDIE71-60DI CVLPS, 800 U of human GM-CSF/ml and 500 U of human IL4/ml and also, for a further 5 weeks, with HPV18 L1ΔCDIE71-53DI CVLPs and HPV18 L1ΔCDIE71-6ODI CVLPs at 37° C., with the weekly addition of 1 μg of the CVLPs mixLure (ratio of the two constructs 1:1)/ml and 10^5 antigen-presenting cells (irradiated PMBC), and harvested.
The 20 mer peptides Q1 to 52 were assembled into peptide pools A to H and 1 to 7, respectively, in accordance with the matrix
The T cells were then restimulated, at 37° C. and in 100 μl of medium, with the peptide pools and 10^5 antigen-presenting cells (donor-identical BLCL) in the presence of 10 IU of IL2/ml. The quantities of the peptide pools which were used in this connection were such that. 1 μg/ml was added in the case of each individual peptide.
Cells which were only incubated with buffer served as the negative control while cells incubated with the HPV18 L1 peptide pool and the HPV18 E7 peptide pool, respectively, served as positive controls.
as §2, with “CD8/APC,” for “CDB/APC,”, “analyzed” for “examined”

[7] = system: CVLP-stimulated CD4-positive T cells; assay: Restimulating HPV18 CVLP-stimulated T cells with BLCL presenting HPV18 peptide pools (example 12); type: cell-based, human; conditions: peptide common to two reactive HPV18 pools; CD4/IFNγ
Experimental: as §1
The T cells were then restimulated, at 37° C. and in 100 μl of medium, with the HPV18 peptide pools from example 6 and 10^5 antigen-presenting cells (donor-identical BLCL) in the presence of 10 IU of IL2/ml. Use was made, in this connection, of quantities of the peptide pools which were such that 1 μg/ml was added in the case of each individual peptide. Cells which were only incubated with buffer served as the negative control while cells which were incubated with HPV18 L1 peptide pool served as the positive control.
as §2, with “CD8/APC,” for “CDB/APC,”

HPV16 E628-36: control peptide in the chromium release assay (TTIHDIILE; UniProt P03126 28-36, looked up, fragment)
specific lysis [1]: No specific lysis

HPV16 E728-36: control peptide in the ELISpot analysis (LNDSSEEED; UniProt P03129 28-36, looked up, fragment) [reference compound]
IFN-γ ELISpot reaction [2]: did not induce any IFN-γ secretion

HPV18 E77-15: control peptide; HPV18 E77-15 epitope described by Rudolf MP et al. (2001) (TLQDIVLHL; UniProt P06788 7-15, looked up, fragment)
specific lysis [1]: No specific lysis

NNGVCWHNQLFVTVVDTTRS [Q30, HPV18 L1 320-339]
T cell epitope assignment (TH1) ([3]; peptide common to pools F and 4): contains a TH1 epitope
proportion of reactive CD4-positive and IFNγ-positive T cells, confirmation experiment ([3]; pools F or 4 or 1 μg Q30/ml compared with each other, FIG. 14): comparable
Epitope type (human T cells): TH1

PQRHTMLCMCCKCEARIKLV [Q49, HPV18 E7 56-75]
T cell epitope assignment (LKK cells; conclusion from FIG. 16 lower part): H2k-restricted cytotoxic T cell epitope
specific lysis of target cells (51Cr release) (LKK cells; peptide-loaded LKK cells, effector:target 20, FIG. 16 lower part): able to efficiently lyse

TTYKNTNFKEYLRHGEEYDL [P33, HPV16 L1 353-372]
proportion of CD8-positive T cells reactive on the basis of IFNγ expression ([4]; 1 μg P33/ml, donor-identical BLCL, versus negative control, FIG. 10): markedly higher
T cell epitope assignment ([4]; conclusion from FIG. 10): contains a cytotoxic T cell epitope
specific lysis of target cells (51Cr release) (P33-loaded RMA cells; 10 μg P33/ml, effector:target 20, T cells stimulated with peptides P1-P43, FIG. 2): able to efficiently lyse
T cell epitope assignment (P33-loaded RMA cells; conclusion from FIG. 2): H2b-restricted cytotoxic T cell epitope

VDLLCHEQLSDSEEENDEID [Q46, HPV18 E7 23-42]
proportion of reactive CD4-positive and IFNγ-positive T cells ([5]; 1 μg peptide/ml, donor-identical BLCL, FIG. 12 top left): markedly higher than in the negative control
proportion of CD8-positive and IL4-positive cells ([5]; 1 μg peptide/ml, FIG. 12 lower right): low, and comparable to the negative control
T cell epitope assignment (TH1) ([5]; conclusion from FIG. 12 top left): contain a TH1 epitope
T cell epitope assignment [6]: contain T helper epitopes
Epitope type (human T cells): TH1
T cell epitope assignment (TH1) [7]: contain a TH1 epitope
